Measured values: patent US20210255193A1, “LYSINE REACTIVE PROBES AND USES THEREOF” (The Scripps Research Institute, priority 2017, published 2021)

Legend:
Experiment in all cases: competitive isoTOP-ABPP
Type in all cases: binding
[1] = target: T1, POLR2L DNA-directed RNA polymerases I, II, and III subunit (Homo sapiens, UniProt P62875); settings: for isoTOP-ABPP ratio (R) at liganded lysine P62875_K67 / R value (DMSO/fragment) for probe 1 labeling / isoTOP-ABPP reactivity ratio at lysine P62875_K67: 50 uM, in vitro; for isoTOP-ABPP ratio (R) at liganded lysine P62875_K67: sol, 231; for R value (DMSO/fragment) for probe 1 labeling: P62875_K67; for R value (DMSO/fragment) for probe 1 labeling / isoTOP-ABPP reactivity ratio at lysine P62875_K67: 231 sol
T1 construct: isoTOP-ABPP experiments performed in cell lysates (in vitro); endogenous in cells; host or cells: soluble proteome of human cancer cell lines (MDA-MB-231, Ramos, Jurkat)
How it was run: (§1)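 Competition format: fragment (50 μM activated ester, 100 μM guanidinylating agent) versus vehicle in lysate, then lysine probe STP-alkyne at 0.1 mM for 1 h. Quantitation by light/heavy TEV-tag MS1 peak areas, reported as R.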

[2] = target: T2, MAP2K3 Dual specificity mitogen-activated protein kinase (Homo sapiens, UniProt P46734); settings: for isoTOP-ABPP ratio (R) at liganded lysine P46734_K93 / R value (DMSO/fragment) for probe 1 labeling / isoTOP-ABPP reactivity ratio at lysine P46734_K93: 50 uM, in vitro; for isoTOP-ABPP ratio (R) at liganded lysine P46734_K93: sol, 231; for R value (DMSO/fragment) for probe 1 labeling: P46734_K93; for R value (DMSO/fragment) for probe 1 labeling / isoTOP-ABPP reactivity ratio at lysine P46734_K93: 231 sol
T2 construct: isoTOP-ABPP experiments performed in cell lysates (in vitro); endogenous in cells; host or cells: soluble proteome of human cancer cell lines (MDA-MB-231; Ramos and Jurkat also prepared)
T2 sequence (P46734 1-347): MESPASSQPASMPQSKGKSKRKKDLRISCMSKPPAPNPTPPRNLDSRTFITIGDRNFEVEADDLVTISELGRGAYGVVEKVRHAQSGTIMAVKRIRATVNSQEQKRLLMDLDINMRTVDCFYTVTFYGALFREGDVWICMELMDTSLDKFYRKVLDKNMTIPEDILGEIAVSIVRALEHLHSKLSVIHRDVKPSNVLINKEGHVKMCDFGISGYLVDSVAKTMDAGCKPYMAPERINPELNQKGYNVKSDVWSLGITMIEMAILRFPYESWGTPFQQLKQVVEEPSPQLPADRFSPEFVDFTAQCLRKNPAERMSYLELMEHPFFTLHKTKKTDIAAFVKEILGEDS
How it was run: as §1

[3] = target: T3, G6PD Glucose-6-phosphate 1-dehydrogenase (Homo sapiens, UniProt P11413); settings: for isoTOP-ABPP ratio (R) at liganded lysine P11413_K171 / R value (DMSO/fragment) for probe 1 labeling / isoTOP-ABPP reactivity ratio at lysine P11413_K171: 50 uM, in vitro; for isoTOP-ABPP ratio (R) at liganded lysine P11413_K171: sol, 231; for R value (DMSO/fragment) for probe 1 labeling: P11413_K171; for R value (DMSO/fragment) for probe 1 labeling / isoTOP-ABPP reactivity ratio at lysine P11413_K171: 231 sol
T3 construct: isoTOP-ABPP experiments performed in cell lysates (in vitro); endogenous in cells; host or cells: MDA-MB-231 soluble lysate
How it was run: as §1

[4] = target: T4, PNPO Pyridoxine-5-phosphate oxidase (Homo sapiens, UniProt Q9NVS9); settings: for isoTOP-ABPP ratio (R) at liganded lysine Q9NVS9_K100 / R value (DMSO/fragment) for probe 1 labeling / isoTOP-ABPP reactivity ratio at lysine Q9NVS9_K100: 50 uM, in vitro; for isoTOP-ABPP ratio (R) at liganded lysine Q9NVS9_K100: sol, 231; for R value (DMSO/fragment) for probe 1 labeling: Q9NVS9_K100; for R value (DMSO/fragment) for probe 1 labeling / isoTOP-ABPP reactivity ratio at lysine Q9NVS9_K100: 231 sol
T4 construct: endogenous in cells; host or cells: MDA-MB-231 (soluble fraction of lysate)
T4 sequence (Q9NVS9 1-261): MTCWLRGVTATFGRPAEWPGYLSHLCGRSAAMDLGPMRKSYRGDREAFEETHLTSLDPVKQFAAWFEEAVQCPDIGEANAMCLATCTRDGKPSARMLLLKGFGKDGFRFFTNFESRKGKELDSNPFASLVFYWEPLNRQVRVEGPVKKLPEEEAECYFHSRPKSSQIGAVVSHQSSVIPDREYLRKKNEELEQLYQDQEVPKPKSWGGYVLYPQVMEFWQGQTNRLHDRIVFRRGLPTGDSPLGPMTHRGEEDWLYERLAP
How it was run: as §1

[5] = target: T5, ENOPH1 Enolase-phosphatase E1 (Homo sapiens, UniProt Q9UHY7); settings: for isoTOP-ABPP ratio (R) at liganded lysine Q9UHY7_K111 / R value (DMSO/fragment) for probe 1 labeling / isoTOP-ABPP reactivity ratio at lysine Q9UHY7_K111: 50 uM, in vitro; for isoTOP-ABPP ratio (R) at liganded lysine Q9UHY7_K111: sol, 231; for R value (DMSO/fragment) for probe 1 labeling: Q9UHY7_K111; for R value (DMSO/fragment) for probe 1 labeling / isoTOP-ABPP reactivity ratio at lysine Q9UHY7_K111: 231 sol
T5 construct: endogenous in cells; host or cells: MDA-MB-231 (soluble fraction of lysate)
How it was run: as §1

T3 sequence (P11413 whole entry, the tested form may be a part): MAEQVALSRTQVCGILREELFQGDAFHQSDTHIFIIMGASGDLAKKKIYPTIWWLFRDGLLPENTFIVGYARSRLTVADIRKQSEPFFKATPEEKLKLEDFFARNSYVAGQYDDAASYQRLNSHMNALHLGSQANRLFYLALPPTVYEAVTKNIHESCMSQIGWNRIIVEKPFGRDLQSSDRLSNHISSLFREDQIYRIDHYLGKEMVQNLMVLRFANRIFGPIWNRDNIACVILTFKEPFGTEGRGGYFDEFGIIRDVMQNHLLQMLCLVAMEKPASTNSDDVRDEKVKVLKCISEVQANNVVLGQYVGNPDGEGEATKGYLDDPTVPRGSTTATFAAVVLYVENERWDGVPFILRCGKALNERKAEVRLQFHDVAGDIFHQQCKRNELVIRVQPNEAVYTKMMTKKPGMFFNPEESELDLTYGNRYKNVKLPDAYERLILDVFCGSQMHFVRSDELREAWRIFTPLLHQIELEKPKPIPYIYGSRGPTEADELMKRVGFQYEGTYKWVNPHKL
T5 sequence (Q9UHY7 whole entry, the tested form may be a part): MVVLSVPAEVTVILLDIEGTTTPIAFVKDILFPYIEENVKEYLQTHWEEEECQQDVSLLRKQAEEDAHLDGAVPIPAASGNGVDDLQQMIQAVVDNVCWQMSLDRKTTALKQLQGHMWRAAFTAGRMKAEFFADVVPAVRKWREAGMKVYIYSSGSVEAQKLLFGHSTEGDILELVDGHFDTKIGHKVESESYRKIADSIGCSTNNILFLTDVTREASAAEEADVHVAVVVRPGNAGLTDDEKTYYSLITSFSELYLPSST

isoTOP-ABPP reactivity ratio at lysine Q9UHY7_K111 [5] | SMILES | isoTOP-ABPP ratio (R) at liganded lysine P46734_K93 [2] | isoTOP-ABPP ratio (R) at liganded lysine P11413_K171 [3] | isoTOP-ABPP ratio (R) at liganded lysine Q9NVS9_K100 [4] | isoTOP-ABPP ratio (R) at liganded lysine Q9UHY7_K111 [5] | isoTOP-ABPP reactivity ratio at lysine P11413_K171 [3] | isoTOP-ABPP reactivity ratio at lysine Q9NVS9_K100 [4] | other results
 | CC(C)(C)OC(=O)NCCCC(=O)Oc1ccc([N+](=O)[O-])cc1[N+](=O)[O-] [fragment 41, 2,4-Dinitrophenyl 4-((tert-butoxycarbonyl)amino)butanoate] | 0.9 | 1.0 | 1.0 | 1.1 |  |  | isoTOP-ABPP ratio (R) at liganded lysine P62875_K67 [1]: 2.6
 | Cn1cc(CC(=O)Oc2c(F)c(F)c(F)c(F)c2F)c2ccccc21 [fragment 22, Pentafluorophenyl 2-(1-methyl-1H-indol-3-yl)acetate] |  |  |  |  |  |  | R value (DMSO/fragment) for probe 1 labeling [1]: 0.9; R value (DMSO/fragment) for probe 1 labeling [2]: 0.9; R value (DMSO/fragment) for probe 1 labeling [3]: 0.7; blockade of probe 1 labeling of K100 ([4]; PNPO K100): fully blocking probe 1 labeling; R value (DMSO/fragment) for probe 1 labeling [4]: 20.0; R value (DMSO/fragment) for probe 1 labeling [5]: 1.4
 | O=C(Oc1ccc([N+](=O)[O-])cc1[N+](=O)[O-])c1ccc(-c2ccccc2)cc1 [fragment 37, 2,4-Dinitrophenyl [1,1′-biphenyl]-4-carboxylate] | 0.7 | 0.9 | 0.9 | 0.9 |  |  | isoTOP-ABPP ratio (R) at liganded lysine P62875_K67 [1]: 0.9
 | O=C(Oc1c(F)c(F)c(F)c(F)c1F)C(c1ccccc1)c1ccccc1 [fragment 20, Pentafluorophenyl 2,2-diphenylacetate] |  |  |  |  |  |  | R value (DMSO/fragment) for probe 1 labeling [1]: 0.9; R value (DMSO/fragment) for probe 1 labeling [2]: 0.9; R value (DMSO/fragment) for probe 1 labeling [3]: 0.7; R value (DMSO/fragment) for probe 1 labeling [4]: 0.9; R value (DMSO/fragment) for probe 1 labeling [5]: 1.0
 | O=C(Oc1ccc([N+](=O)[O-])cc1[N+](=O)[O-])c1ccc2ccccc2n1 [fragment 35, 2,4-Dinitrophenyl quinoline-2-carboxylate] | 1.0 | 1.7 | 0.9 | 1.0 |  |  | isoTOP-ABPP ratio (R) at liganded lysine P62875_K67 [1]: 0.9
 | O=C(CCc1ccc2c(c1)OCO2)Oc1ccc([N+](=O)[O-])cc1[N+](=O)[O-] [fragment 45, 2,4-Dinitrophenyl 3-(benzo[d][1,3]dioxol-5-yl)propanoate] |  |  |  |  |  |  | isoTOP-ABPP ratio, lysine P62875_K67 ([1]; 50 uM_231_sol_in vitro): 2.8; isoTOP-ABPP ratio, lysine P46734_K93 ([2]; 50 uM_231_sol_in vitro): 0.9; isoTOP-ABPP ratio, lysine P11413_K171 ([3]; 50 uM_231_sol_in vitro): 1.1; isoTOP-ABPP ratio, lysine Q9NVS9_K100 ([4]; 50 uM_231_sol_in vitro): 1.0; isoTOP-ABPP ratio, lysine Q9UHY7_K111 ([5]; 50 uM_231_sol_in vitro): 1.1
 | COc1cc(CCC(=O)Oc2c(F)c(F)c(F)c(F)c2F)cc(OC)c1OC [fragment 23, Pentafluorophenyl 3-(3,4,5-trimethoxyphenyl)propanoate] |  |  |  |  |  |  | R value (DMSO/fragment) for probe 1 labeling [1]: 1.1; R value (DMSO/fragment) for probe 1 labeling [2]: 0.9; R value (DMSO/fragment) for probe 1 labeling [3]: 2.1; R value (DMSO/fragment) for probe 1 labeling [4]: 1.8; R value (DMSO/fragment) for probe 1 labeling [5]: 1.3
 | O=C(Oc1ccc([N+](=O)[O-])cc1[N+](=O)[O-])c1ccccc1Nc1cccc(C(F)(F)F)c1 [fragment 40, 2,4-Dinitrophenyl 2-((3-(trifluoromethyl)phenyl)amino)benzoate] | 1.0 | 1.9 | 0.9 | 0.7 |  |  | isoTOP-ABPP ratio (R) at liganded lysine P62875_K67 [1]: 1.0
1.1 | O=C(Oc1c(F)c(F)c(F)c(F)c1F)c1ccc2ccccc2n1 [fragment 25, Pentafluorophenyl quinoline-2-carboxylate] |  |  |  |  | 0.8 | 1.0 | isoTOP-ABPP reactivity ratio at lysine P62875_K67 [1]: 1.0
 | O=C(Oc1ccc([N+](=O)[O-])cc1[N+](=O)[O-])c1cc(C(F)(F)F)cc(C(F)(F)F)c1 [fragment 31, 2,4-Dinitrophenyl 3,5-bis(trifluoromethyl)benzoate] |  |  |  |  | 1.1 | 1.0 | isoTOP-ABPP reactivity ratio at lysine P62875_K67 [1]: 0.9; isoTOP-ABPP reactivity ratio at lysine P46734_K93 [2]: 1.2
1.5 | O=C(CN1C(=O)c2ccccc2C1=O)Oc1c(F)c(F)c(F)c(F)c1F [fragment 27, Pentafluorophenyl 2-(1,3-dioxoisoindolin-2-yl)acetate] |  |  |  |  | 0.9 | 1.0 | isoTOP-ABPP reactivity ratio at lysine P62875_K67 [1]: 1.0
 | CC(=O)Oc1ccc([N+](=O)[O-])cc1[N+](=O)[O-] [fragment 43, 2,4-Dinitrophenyl acetate] | 1.0 | 1.0 | 1.0 | 0.9 |  |  | 
 | O=C(Oc1ccc([N+](=O)[O-])cc1[N+](=O)[O-])C(c1ccccc1)(c1ccccc1)c1ccccc1 [fragment 42, 2,4-Dinitrophenyl 2,2,2-triphenylacetate] | 0.9 | 0.9 | 0.9 |  |  |  | isoTOP-ABPP ratio (R) at liganded lysine P62875_K67 [1]: 1.0
1.4 | O=C(Oc1c(F)c(F)c(F)c(F)c1F)C1CCN(C(=O)OCc2ccccc2)CC1 [fragment 24, 1-Benzyl 4-(pentafluorophenyl) piperidine-1,4-dicarboxylate] |  |  |  |  | 0.9 | 0.9 | isoTOP-ABPP reactivity ratio at lysine P62875_K67 [1]: 0.9
 | O=C(CC12CC3CC(CC(C3)C1)C2)Oc1ccc([N+](=O)[O-])cc1[N+](=O)[O-] [fragment 38, 2,4-Dinitrophenyl 2-(adamantan-1-yl)acetate] | 0.9 | 0.9 | 0.9 | 1.1 |  |  | 
 | COC(=O)NC(=NC(=O)OCC1c2ccccc2-c2ccccc21)n1cccn1 [fragment 49, N-Methoxycarbonyl-N′-9-fluorenylmethoxycarbonyl-pyrazole-1-carboxamidine] |  |  |  |  |  |  | isoTOP-ABPP ratio, lysine P46734_K93 ([2]; 100 uM_231_sol_in vitro): 6.8; isoTOP-ABPP ratio, lysine P11413_K171 ([3]; 100 uM_231_sol_in vitro): 1.2; isoTOP-ABPP ratio, lysine Q9NVS9_K100 ([4]; 100 uM_231_sol_in vitro): 3.3; isoTOP-ABPP ratio, lysine Q9UHY7_K111 ([5]; 100 uM_231_sol_in vitro): 20.0
1.0 | CCn1cc(C(=O)Oc2c(F)c(F)c(F)c(F)c2F)c(=O)c2ccc(C)nc21 [fragment 28, Pentafluorophenyl 1-ethyl-7-methyl-4-oxo-1,4-dihydro-1,8-naphthyridine-3-carboxylate] |  |  |  |  | 0.9 | 0.9 | isoTOP-ABPP reactivity ratio at lysine P62875_K67 [1]: 1.0

SMILES | isoTOP-ABPP reactivity ratio at lysine Q9UHY7_K111 [5] | isoTOP-ABPP ratio (R) at liganded lysine P46734_K93 [2] | isoTOP-ABPP ratio (R) at liganded lysine P11413_K171 [3] | isoTOP-ABPP ratio (R) at liganded lysine Q9NVS9_K100 [4] | isoTOP-ABPP ratio (R) at liganded lysine Q9UHY7_K111 [5] | isoTOP-ABPP reactivity ratio at lysine P11413_K171 [3] | isoTOP-ABPP reactivity ratio at lysine Q9NVS9_K100 [4] | other results
COc1cc(CCC(=O)Oc2ccc([N+](=O)[O-])cc2[N+](=O)[O-])cc(OC)c1OC [fragment 33, 2,4-Dinitrophenyl 3-(3,4,5-trimethoxyphenyl)propanoate] | 0.9 |  |  |  |  | 16.3 | 1.2 | isoTOP-ABPP reactivity ratio at lysine P46734_K93 [2]: 0.9
Cn1cc(CC(=O)Oc2ccc([N+](=O)[O-])cc2[N+](=O)[O-])c2ccccc21 [fragment 32, 2,4-Dinitrophenyl 2-(1-methyl-1H-indol-3-yl)acetate] | 1.3 |  |  |  |  | 0.9 | 3.6 | isoTOP-ABPP reactivity ratio at lysine P46734_K93 [2]: 1.4
O=C(CCc1cn(-c2ccccc2)nc1-c1ccccc1)Oc1ccc([N+](=O)[O-])cc1[N+](=O)[O-] [fragment 29, 2,4-Dinitrophenyl 3-(1,3-diphenyl-1H-pyrazol-4-yl)propanoate] | 0.8 |  |  |  |  | 0.9 | 1.9 | isoTOP-ABPP reactivity ratio at lysine P46734_K93 [2]: 0.9
